Assay results as given in patent US9221761B2, “Method for inhibition of deubiquitinating activity” (Vivolux AB, priority 2011, dated 2015).

Tests used:
[1] = test system: HCT116; assay: FMCA (Fluorometric Microculture Cytotoxicity Assay) cytotoxicity; type: cell-based; details: 72 hours of continuous compound exposure
Description: FIGS. 1a to 1o are diagrams illustrating induction of dose-dependent cytotoxicity after 72 hours of continuous compound exposure to the reporter cell line HCT-116 by embodiments of the compound of the invention, as measured FMCA (Fluorometric Microculture Cytotoxicity Assay), as well as absence of such induction by structurally related compounds not comprised by the invention. Treated cells were compared to untreated controls (survival index);
Determination of cell apoptosis and viability. For determination of apoptosis parental HCT-116 p53+/+ cells are treated with the increasing doses of the compound of the invention for 24 h. […] HCT-116 cells are seeded in 96-well microtiter plates at 10,000 cells per well and incubated overnight. Cells are treated with indicated drug for 24 h. At the end of the incubation period, NP40 is added to the tissue culture medium to 0.1% and 25 μl of the content of each well was assayed using the M30-Apoptosense® ELISA as previously described (31). Cell viability is determined by measuring acid phosphatase activity or using the FMCA method (32). For the acid phosphatase activity cells are seeded at 5000 cells per well in 96-well culture plates and incubated for 12 h at 37° C. Compounds are added to the cells in growth media and incubated for 72 h at 37° C. Cells are washed with 200 μl warm PBS. 100 μl of para-nitrophenyl phosphate (pNPP, 2 mg/ml) in Na acetate buffer pH 5 (NaAc 0.1 M, 0.1% Triton-X-100) is added per well. Cells are incubated for 2 h after which reaction was stopped by addition of 1N NaOH. Absorbance is measured at 405 nm. The dose-dependent cytotoxicity of a number of embodiments of the compound of the invention is illustrated in FIGS. 1a-1o.
For the FMCA assay cells are seeded in the drug-prepared 384-well plates using the pipetting robot Precision 2000 (Bio-Tek Instruments Inc., Winooski, Vt.). The plates are incubated for 72 h and then transferred to an integrated HTS SAIGAN Core System consisting of an ORCA robot (Beckman Coulter) with CO2 incubator (Cytomat 2C, Kendro, Sollentuna, Sweden), dispenser module (Multidrop 384, Titertek, Huntsville, Ala.), washer module (ELx 405, Bio-Tek Instruments Inc), delidding station, plate hotels, barcode reader (Beckman Coulter), liquid handler (Biomek 2000, Beckman Coulter) and a multipurpose reader (FLUOstar Optima, BMG Labtech GmbH, Offenburg, Germany) for automated FMCA. Survival index (SI) is defined as the fluorescence of test wells in percentage of controls with blank values subtracted.
FIGS. 3b, 3d, 3f are diagrams illustrating the cytotoxicity of compounds of the invention nos. 1546, 1547, and 1570 with a 7-membered ring moiety in comparison to structurally corresponding compounds not comprised by the invention with a 6-membered ring moiety. Their induction of dose-dependent cytotoxicity was determined after 72 hours of continuous compound exposure to the reporter cell line HCT-116. Treated cells were compared with untreated controls. Cytotoxicity is visualized as survival index (SI) over the range of about 90% SI to about 0% SI in dependence on compound concentration.

[2] = test system: MelJuSo Ub-YFP reporter cell line; assay: Proteasome inhibition in reporter cell line, YFP accumulation in IncuCyte-FLR; type: cell-based; details: YFP accumulation measured for 48 hours; for MeJuSo-UB, lowest effective conc.: Table 2; for MeJuSo-UB, IncuCyte lowest effective conc.: Table 1
Text: Cell culture. MCF7 cells are maintained in MEM/10% fetal calf serum. HCT-116 p53+/+, p53−/−, Bcl-2+/+, PUMA−/− and BAX−/− cells are maintained in McCoy's 5A modified medium/10% fetal calf serum. The HCT-116 p53+/+, p53−/−, PUMA−/− and BAX−/− are generated as described (25). The HCT-116 Bcl-2+/+ cell line was generated by transfecting parental HCT-116 p53+/+ cells with pCEP4 Bcl-2 (Addgene plasmid 16461) (26) and isolating high expression clones. FaDu and LLC3 cells are maintained in DMEM high glucose medium supplemented with 10% fetal calf serum, Na pyruvate, Hepes and non-essential amino acids. 4T1.12B carcinoma cells are maintained in RPMI medium supplemented with 10% fetal calf serum. The proteasome reporter cell line MelJuSo Ub-YFP was generated as described (12). Cells were maintained in Dulbecco's Modified Eagle's Medium/10% fetal calf serum. […] The retinal epithelial cell line was generated as described (28). All cells are maintained at 37° C. in 5% CO2.
The compound of the invention induces proteasome inhibition. The reporter cell line MelJuSo Ub-YFP, which is engineered to accumulate yellow fluorescent protein (YFP) upon proteasome inhibition (12), was used for compound evaluation. The accumulation of YFP was measured for 48 hours in an IncuCyte-FLR system (Essen Bioscience, Essen, UK), which is an automated fluorescence microscope. Numbers of positive cells per field were used as a measure of proteasome inhibition.

O=C(O)C(F)(F)F.O=C1/C(=C/c2ccc([N+](=O)[O-])cc2)CCN(C(=O)[C@H]2CCCN2)C/C1=C\c1ccc([N+](=O)[O-])cc1 [Compound 1505, (2R)-2-{[(3E,5E)-3,5-bis[(4-nitrophenyl)methylidene]-4-oxoazepan-1-carbonyl}pyrrolidinium trifluoroacetate]
IC50 ([1]; Table 2): 5200 nM

O=C(O)C(F)(F)F.O=C1/C(=C/c2ccc([N+](=O)[O-])cc2)CCN(C(=O)[C@H]2CCCN2)C/C1=C\c1ccc([N+](=O)[O-])cc1 [Compound 1505]
MeJuSo-UB, lowest effective conc. [2]: 16 µM

CCOC(=O)CCC(=O)N1CC/C(=C\c2ccc([N+](=O)[O-])cc2)C(=O)/C(=C/c2ccc([N+](=O)[O-])cc2)C1.O=C(O)C(F)(F)F [Compound 1507, (3E,5E)-1-(4-ethoxy-4-oxobutanoyl)-3,5-bis[(4-nitrophenyl)methylidene]-4-oxoazepan-1-ium trifluoroacetate]
MeJuSo-UB, lowest effective conc. [2]: 8 µM
IC50 ([1]; Homo sapiens, HCT-116, Table 2): 4400 nM

O=C1/C(=C/c2ccccc2)CCNC/C1=C\c1ccccc1 [Compound 1516, (3E,5E)-3,5-Bis(phenylmethylidene)azepan-4-one]
MeJuSo-UB, IncuCyte lowest effective conc. [2]: 1.2 µM

O=C1/C(=C/c2ccc(Cl)cc2)CCNC/C1=C\c1ccc(Cl)cc1 [Compound 1518, (3E,5E)-3,5-bis[(4-chlorophenyl)methylidene]azepan-4-one]
MeJuSo-UB, IncuCyte lowest effective conc. [2]: 1.6 µM

O=C1C(=Cc2ccc(Cl)cc2)CCN(C(=O)C2CCC2)CC1=Cc1ccc(Cl)cc1 [Compound 1527]
MeJuSo-UB, lowest effective conc. [2]: 2 µM

O=C1C(=Cc2cccc([N+](=O)[O-])c2)CCNCC1=Cc1cccc([N+](=O)[O-])c1 [Compound 1535]
IC50 ([1]; Table 1): 5900 nM

O=C1C(=Cc2ccccc2[N+](=O)[O-])CCNCC1=Cc1ccccc1[N+](=O)[O-] [Compound 1536]
IC50 ([1]; Table 1): 6900 nM

O=C1C(=Cc2ccc([N+](=O)[O-])cc2)CCNCC1=Cc1ccc([N+](=O)[O-])cc1 [Compound 1537]
IC50 ([1]; Table 1): 4100 nM

O=C1/C(=C/c2cccc([N+](=O)[O-])c2)CCNC/C1=C\c1ccccc1 [Compound 1560, (3E,5E)-5-[(3-nitrophenyl)methylidene]-3-(phenylmethylidene)azepan-4-one]
IC50 ([1]; Homo sapiens, HCT-116, Table 1): 1000 nM

O=C1C(=Cc2ccc(F)cc2)CCNCC1=Cc1ccc(F)cc1 [Compound 1561]
MeJuSo-UB, IncuCyte lowest effective conc. [2]: 1 µM
IC50 ([1]; Table 1): 1000 nM

O=C1C(=Cc2ccc(F)c([N+](=O)[O-])c2)CCNCC1=Cc1ccc(F)c([N+](=O)[O-])c1 [Compound 1562]
MeJuSo-UB, IncuCyte lowest effective conc. [2]: 0.25 µM
IC50 ([1]; Table 1): 500 nM

CN1CC/C(=C\c2ccc([N+](=O)[O-])cc2)C(=O)/C(=C/c2ccc([N+](=O)[O-])cc2)C1 [Compound 1563, (3E,5E)-1-methyl-3,5-bis[(4-nitrophenyl)methylidene]azepan-4-one]
MeJuSo-UB, IncuCyte lowest effective conc. [2]: 0.5 µM
IC50 ([1]; Homo sapiens, HCT-116, Table 1): 1500 nM

CN1CCC(=Cc2ccc(F)cc2)C(=O)C(=Cc2ccc(F)cc2)C1 [Compound 1564]
MeJuSo-UB, IncuCyte lowest effective conc. [2]: 16 µM
IC50 ([1]; Table 1): 900 nM

CN1CCC(=Cc2ccc(F)c([N+](=O)[O-])c2)C(=O)C(=Cc2ccc(F)c([N+](=O)[O-])c2)C1 [Compound 1565]
MeJuSo-UB, IncuCyte lowest effective conc. [2]: 0.5 µM
IC50 ([1]; Table 1): 1500 nM

CN1CCC(=Cc2cccc([N+](=O)[O-])c2)C(=O)C(=Cc2cccc([N+](=O)[O-])c2)C1 [Compound 1566]
MeJuSo-UB, IncuCyte lowest effective conc. [2]: 0.5 µM
IC50 ([1]; Table 1): 2300 nM

CC(=O)N1CCC(=Cc2ccc([N+](=O)[O-])cc2)C(=O)C(=Cc2ccc([N+](=O)[O-])cc2)C1 [Compound 1567]
MeJuSo-UB, lowest effective conc. [2]: 0.5 µM
IC50 ([1]; Table 2): 600 nM

C=CC(=O)N1CCC(=Cc2ccc(F)cc2)C(=O)C(=Cc2ccc(F)cc2)C1 [Compound 1568]
MeJuSo-UB, lowest effective conc. [2]: 2 µM
IC50 ([1]; Table 2): 1500 nM

C=CC(=O)N1CCC(=Cc2ccc(F)cc2)C(=O)C(=Cc2ccc(F)cc2)C1 [Compound 1569]
MeJuSo-UB, lowest effective conc. [2]: 4 µM
IC50 ([1]; Table 2): 2000 nM

C=CC(=O)N1CCC(=Cc2cccc([N+](=O)[O-])c2)C(=O)C(=Cc2cccc([N+](=O)[O-])c2)C1 [Compound 1572]
MeJuSo-UB, lowest effective conc. [2]: 0.5 µM
IC50 ([1]; Table 2): 2500 nM

CCCN1CC/C(=C\c2ccc(F)cc2)C(=O)/C(=C/c2ccc(F)cc2)C1 [Compound 1574, (3E,5E)-3,5-bis[(4-fluorophenyl)methylidene]-1-propylazepan-4-one]
MeJuSo-UB, IncuCyte lowest effective conc. [2]: 0.5 µM
IC50 ([1]; Homo sapiens, HCT-116, Table 1): 2800 nM

COc1ccc(/C=C2\CNCC/C(=C\c3ccc([N+](=O)[O-])cc3)C2=O)cc1 [Compound 1575, (3E,5E)-3-[(4-methoxyphenyl)methylidene]-5-[(4-nitrophenyl)methylidene]azepan-4-one]
MeJuSo-UB, IncuCyte lowest effective conc. [2]: 1 µM
IC50 ([1]; Homo sapiens, HCT-116, Table 1): 2100 nM

COc1ccc(C=C2CNCCC(=Cc3ccc(F)cc3)C2=O)cc1 [Compound 1576]
MeJuSo-UB, IncuCyte lowest effective conc. [2]: 8 µM
IC50 ([1]; Table 1): 1600 nM

COc1ccc(/C=C2\CN(C)CC/C(=C\c3ccc(F)cc3)C2=O)cc1 [Compound 1577, (3E,5E)-5-[(4-fluorophenyl)methylidene]-3-[(4-methoxyphenyl)methylidene]-1-methylazepan-4-one]
MeJuSo-UB, IncuCyte lowest effective conc. [2]: 8 µM
IC50 ([1]; Homo sapiens, HCT-116, Table 1): 4900 nM

COc1ccc(C=C2CN(C(C)=O)CCC(=Cc3ccc(F)cc3)C2=O)cc1 [Compound 1578]
MeJuSo-UB, lowest effective conc. [2]: 8 µM
IC50 ([1]; Table 2): 7000 nM

C=CC(=O)N1CCC(=Cc2ccc([N+](=O)[O-])cc2)C(=O)C(=Cc2ccc(OC)cc2)C1 [Compound 1580]
MeJuSo-UB, lowest effective conc. [2]: 8 µM
IC50 ([1]; Table 2): 1500 nM

COc1ccc(C=C2CN(C(C)=O)CCC(=Cc3ccc([N+](=O)[O-])cc3)C2=O)cc1 [Compound 1581]
MeJuSo-UB, lowest effective conc. [2]: 8 µM
IC50 ([1]; Table 2): 7200 nM

O=C1C(=Cc2ccc(F)cc2)CCNCC1=Cc1ccc(Cl)cc1 [Compound 1582]
MeJuSo-UB, IncuCyte lowest effective conc. [2]: 2 µM
IC50 ([1]; Table 1): 1700 nM

O=C1/C(=C/c2ccc(Cl)cc2)CCNC/C1=C\c1ccc([N+](=O)[O-])cc1 [Compound 1583, (3E,5E)-5-[(4-chlorophenyl)methylidene]-3-[(4-nitrophenyl)methylidene]azepan-4-one]
MeJuSo-UB, IncuCyte lowest effective conc. [2]: 2 µM
IC50 ([1]; Homo sapiens, HCT-116, Table 1): 3300 nM

O=C1C(=Cc2ccc(Cl)cc2)CCNCC1=Cc1ccc([N+](=O)[O-])cc1 [Compound 1584]
MeJuSo-UB, IncuCyte lowest effective conc. [2]: 2 µM
IC50 ([1]; Table 1): 1800 nM

O=C1C(=Cc2ccc(F)cc2)CCNCC1=Cc1ccc([N+](=O)[O-])cc1 [Compound 1585]
MeJuSo-UB, IncuCyte lowest effective conc. [2]: 2 µM
IC50 ([1]; Table 1): 1500 nM

O=C1C(=Cc2ccc(Cl)cc2)CCNCC1=Cc1ccc(F)cc1 [Compound 1586]
MeJuSo-UB, IncuCyte lowest effective conc. [2]: 0.5 µM
IC50 ([1]; Table 1): 1100 nM

CN1CCC(=Cc2ccc(F)cc2)C(=O)C(=Cc2ccc([N+](=O)[O-])cc2)C1 [Compound 1587]
MeJuSo-UB, IncuCyte lowest effective conc. [2]: 1 µM
IC50 ([1]; Table 1): 3000 nM
